What is called IC50 is the concentration at which inhibition is half-maximal. The term EC50 denotes the concentration needed to bring the measured effect to its halfway point.

Structures are written as SMILES. Calls of active or inactive are those of the source. For most assays here, no stated cut-off is given here; in the data, actives have a measured IC50 and inactives only a lower limit. Bounds are passed on as bounds.

This passage reports IC50 and EC50 results from ChEMBL document CHEMBL1201862, “PubChem BioAssay data set” (2004).

Assay [1] deals with T1, Tyrosine-protein phosphatase non-receptor type 22 (Homo sapiens, UniProt Q9Y2R2).
T1 sequence (Q9Y2R2 whole entry): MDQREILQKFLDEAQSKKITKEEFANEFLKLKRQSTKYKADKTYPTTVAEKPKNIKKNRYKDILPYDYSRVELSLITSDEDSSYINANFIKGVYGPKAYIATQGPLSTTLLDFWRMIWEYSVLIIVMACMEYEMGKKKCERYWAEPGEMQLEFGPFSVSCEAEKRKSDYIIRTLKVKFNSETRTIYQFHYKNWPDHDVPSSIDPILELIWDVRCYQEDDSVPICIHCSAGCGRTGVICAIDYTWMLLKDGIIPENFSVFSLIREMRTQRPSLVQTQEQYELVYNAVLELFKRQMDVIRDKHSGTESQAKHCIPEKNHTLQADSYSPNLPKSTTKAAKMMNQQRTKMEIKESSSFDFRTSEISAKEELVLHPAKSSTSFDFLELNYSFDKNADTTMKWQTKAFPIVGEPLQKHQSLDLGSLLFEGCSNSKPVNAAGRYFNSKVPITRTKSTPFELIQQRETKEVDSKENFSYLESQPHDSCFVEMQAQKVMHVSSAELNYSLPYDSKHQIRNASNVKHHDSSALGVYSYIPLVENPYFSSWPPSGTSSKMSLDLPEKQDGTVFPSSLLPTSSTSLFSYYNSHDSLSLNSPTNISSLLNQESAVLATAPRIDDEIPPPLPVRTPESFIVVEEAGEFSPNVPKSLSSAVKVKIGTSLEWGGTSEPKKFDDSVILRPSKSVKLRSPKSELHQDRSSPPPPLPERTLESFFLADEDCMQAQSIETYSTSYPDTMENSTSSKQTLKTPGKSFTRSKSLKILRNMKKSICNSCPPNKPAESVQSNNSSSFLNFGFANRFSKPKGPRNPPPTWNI
Put plainly: PubChem AID 2140.

Assay [2] concerns the target T1, Tyrosine-protein phosphatase non-receptor type 22. Put plainly: PubChem AID 2135.
Assay [3] shares this target. The experiment in a line: SAR LYP1 Fluorescent Assay using OMFP substrate for In Vitro dose response studies - Set 3. [Related pubchem assays (depositor defined):AID1779, AID1784, AID2140, AID2686]. It is filed as functional.
The target is the same in assay [4]. The experiment in a line: SAR LYP1 Fluorescent Assay using OMFP substrate for In Vitro dose response studies - Set 2. [Related pubchem assays (depositor defined):AID1779, AID1784, AID2140, AID449726, AID488869]. The assay is classed as functional.
For assay [5] the target is unchanged. The experiment in a line: inhibition of lymphoid tyrosine phosphatase LYP – biochemical, pCAP fluorogenic substrate, fluorescence, set 3, SAR follow-up (AID 449727). It is filed as functional.
The target of assay [6] is Tyrosine-protein phosphatase non-receptor type 12 (Homo sapiens, UniProt Q05209). The experiment in a line: SAR Selectivity Analysis of small molecule inhibitors of PEST using pCAP in a fluorescence assay. [Related pubchem assays (depositor defined):AID1779, AID1784, AID2135]. The assay is classed as functional.
Assay [7] deals with T1, Tyrosine-protein phosphatase non-receptor type 22. Put plainly: SAR LYP1 Fluorescent Assay using pCAP substrate for In Vitro dose response studies - Set 2. [Related pubchem assays (depositor defined):AID1779, AID1784, AID2135, AID449727]. It is filed as functional.
The target in assay [8] is T2, Tyrosine-protein phosphatase non-receptor type 7 (Homo sapiens, UniProt P35236).
T2 sequence (P35236 whole entry): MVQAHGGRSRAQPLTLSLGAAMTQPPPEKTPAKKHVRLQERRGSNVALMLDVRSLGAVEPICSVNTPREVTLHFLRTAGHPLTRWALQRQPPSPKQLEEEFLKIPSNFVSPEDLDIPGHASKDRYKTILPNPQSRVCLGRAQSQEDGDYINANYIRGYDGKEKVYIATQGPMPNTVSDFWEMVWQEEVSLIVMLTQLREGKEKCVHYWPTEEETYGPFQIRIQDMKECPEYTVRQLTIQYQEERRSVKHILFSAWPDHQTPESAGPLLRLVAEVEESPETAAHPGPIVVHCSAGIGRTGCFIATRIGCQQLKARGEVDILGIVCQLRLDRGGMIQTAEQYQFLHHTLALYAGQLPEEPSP
The experiment in a line: inhibition of hematopoietic tyrosine phosphatase HePTP – biochemical, set 2, SAR follow-up (AID 449736). It is filed as functional.

Assay [9] addresses Large T antigen (Simian virus 40, UniProt P03070). It is filed as functional, Betapolyomavirus macacae.
The target of assay [10] is Intestinal-type alkaline phosphatase (Mus musculus, UniProt P24822). The experiment in a line: mouse intestinal alkaline phosphatase activators, dose response, biochemical, luminescence, uHTS hits (AID 488783). The assay is classed as functional.
Assay [11] deals with Intestinal-type alkaline phosphatase (Homo sapiens, UniProt P09923). The experiment in a line: activation of human intestinal alkaline phosphatase – biochemical, dose response (AID 488873). It is filed as functional.
Assay [12] addresses T3, SUMO-activating enzyme (Homo sapiens, UniProt Q9UBT2). The experiment in a line: blockers of UBC9-mediated SUMO conjugation – biochemical, AlphaScreen, SUMOylation inhibitor project, confirmation (AID 2018). It is filed as functional.
Assay [13] has as its target T3, SUMO-activating enzyme. Put plainly: blockers of SAE1/SAE2–UBC9 SUMO transfer – biochemical, HTRF, uHTS, primary screen (AID 2006). The assay is classed as protein-complex assay. (In general: In TR-FRET formats the signal depends on donor and acceptor labels being close together.)
Assay [14] deals with T4, Alkaline phosphatase, tissue-nonspecific isozyme (Homo sapiens, UniProt P05186).
T4 sequence (P05186 whole entry): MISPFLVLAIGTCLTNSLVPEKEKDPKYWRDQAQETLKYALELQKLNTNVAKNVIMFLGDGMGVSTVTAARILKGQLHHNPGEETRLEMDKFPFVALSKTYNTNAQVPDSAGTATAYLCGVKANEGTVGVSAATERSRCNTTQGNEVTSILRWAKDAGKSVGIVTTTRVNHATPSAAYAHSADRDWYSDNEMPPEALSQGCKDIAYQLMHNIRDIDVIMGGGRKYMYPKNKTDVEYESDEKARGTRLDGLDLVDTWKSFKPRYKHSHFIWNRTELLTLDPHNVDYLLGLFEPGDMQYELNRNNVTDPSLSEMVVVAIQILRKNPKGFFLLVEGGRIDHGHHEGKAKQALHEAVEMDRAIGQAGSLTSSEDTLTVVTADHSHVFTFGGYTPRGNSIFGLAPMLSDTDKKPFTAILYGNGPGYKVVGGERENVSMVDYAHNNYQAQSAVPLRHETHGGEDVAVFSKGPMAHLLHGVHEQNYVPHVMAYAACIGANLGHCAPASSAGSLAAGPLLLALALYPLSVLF
Put plainly: activation of tissue-nonspecific alkaline phosphatase – biochemical, TNAP isozyme, mouse IAP uHTS hits, selectivity assay for mouse IAP activator project, dose response (AID 488880). The assay is classed as functional.

T3 sequence (Q9UBE0 whole entry): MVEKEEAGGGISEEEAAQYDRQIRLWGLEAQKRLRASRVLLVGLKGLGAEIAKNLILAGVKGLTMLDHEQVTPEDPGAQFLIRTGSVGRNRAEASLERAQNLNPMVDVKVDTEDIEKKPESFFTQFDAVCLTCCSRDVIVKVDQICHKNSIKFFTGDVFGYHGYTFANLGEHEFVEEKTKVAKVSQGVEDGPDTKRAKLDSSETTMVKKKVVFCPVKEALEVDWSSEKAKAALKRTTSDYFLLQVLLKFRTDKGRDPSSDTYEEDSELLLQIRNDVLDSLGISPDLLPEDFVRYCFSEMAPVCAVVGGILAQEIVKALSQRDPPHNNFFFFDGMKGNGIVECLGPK
T3 sequence (Q9UBT2 whole entry): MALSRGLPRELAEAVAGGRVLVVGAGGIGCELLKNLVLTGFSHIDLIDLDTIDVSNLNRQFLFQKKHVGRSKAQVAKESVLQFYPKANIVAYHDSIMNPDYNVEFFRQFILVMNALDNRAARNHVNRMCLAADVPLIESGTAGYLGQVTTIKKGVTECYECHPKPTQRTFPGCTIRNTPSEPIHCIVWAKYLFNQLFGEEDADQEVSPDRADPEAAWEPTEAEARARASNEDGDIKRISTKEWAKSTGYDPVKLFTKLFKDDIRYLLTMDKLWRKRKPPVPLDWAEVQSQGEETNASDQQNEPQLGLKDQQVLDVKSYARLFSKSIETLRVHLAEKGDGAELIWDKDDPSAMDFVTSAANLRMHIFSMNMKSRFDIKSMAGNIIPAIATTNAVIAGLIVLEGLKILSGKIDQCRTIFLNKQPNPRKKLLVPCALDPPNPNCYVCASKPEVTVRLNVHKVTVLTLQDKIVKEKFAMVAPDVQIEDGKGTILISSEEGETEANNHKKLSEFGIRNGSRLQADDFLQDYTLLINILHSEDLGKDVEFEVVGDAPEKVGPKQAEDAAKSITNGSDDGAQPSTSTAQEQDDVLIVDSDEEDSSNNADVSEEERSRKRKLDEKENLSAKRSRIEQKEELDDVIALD
Intestinal-type alkaline phosphatase (Mus musculus, UniProt P24822), sequence (P24822 whole entry): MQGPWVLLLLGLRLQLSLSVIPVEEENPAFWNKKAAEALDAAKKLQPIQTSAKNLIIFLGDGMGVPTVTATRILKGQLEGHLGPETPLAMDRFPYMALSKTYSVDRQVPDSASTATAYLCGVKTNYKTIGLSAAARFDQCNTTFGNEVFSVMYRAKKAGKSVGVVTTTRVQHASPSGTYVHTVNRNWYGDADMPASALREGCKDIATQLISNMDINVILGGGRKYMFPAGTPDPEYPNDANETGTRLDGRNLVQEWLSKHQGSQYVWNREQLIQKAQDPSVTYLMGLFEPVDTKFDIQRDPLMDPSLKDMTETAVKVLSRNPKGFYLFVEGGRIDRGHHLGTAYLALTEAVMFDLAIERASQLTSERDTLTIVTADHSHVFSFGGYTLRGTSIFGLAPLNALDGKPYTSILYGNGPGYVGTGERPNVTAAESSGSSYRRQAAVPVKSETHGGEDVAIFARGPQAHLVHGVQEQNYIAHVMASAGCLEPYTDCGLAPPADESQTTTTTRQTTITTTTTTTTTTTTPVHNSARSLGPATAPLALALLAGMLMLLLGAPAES
Tyrosine-protein phosphatase non-receptor type 12, sequence (Q05209 whole entry): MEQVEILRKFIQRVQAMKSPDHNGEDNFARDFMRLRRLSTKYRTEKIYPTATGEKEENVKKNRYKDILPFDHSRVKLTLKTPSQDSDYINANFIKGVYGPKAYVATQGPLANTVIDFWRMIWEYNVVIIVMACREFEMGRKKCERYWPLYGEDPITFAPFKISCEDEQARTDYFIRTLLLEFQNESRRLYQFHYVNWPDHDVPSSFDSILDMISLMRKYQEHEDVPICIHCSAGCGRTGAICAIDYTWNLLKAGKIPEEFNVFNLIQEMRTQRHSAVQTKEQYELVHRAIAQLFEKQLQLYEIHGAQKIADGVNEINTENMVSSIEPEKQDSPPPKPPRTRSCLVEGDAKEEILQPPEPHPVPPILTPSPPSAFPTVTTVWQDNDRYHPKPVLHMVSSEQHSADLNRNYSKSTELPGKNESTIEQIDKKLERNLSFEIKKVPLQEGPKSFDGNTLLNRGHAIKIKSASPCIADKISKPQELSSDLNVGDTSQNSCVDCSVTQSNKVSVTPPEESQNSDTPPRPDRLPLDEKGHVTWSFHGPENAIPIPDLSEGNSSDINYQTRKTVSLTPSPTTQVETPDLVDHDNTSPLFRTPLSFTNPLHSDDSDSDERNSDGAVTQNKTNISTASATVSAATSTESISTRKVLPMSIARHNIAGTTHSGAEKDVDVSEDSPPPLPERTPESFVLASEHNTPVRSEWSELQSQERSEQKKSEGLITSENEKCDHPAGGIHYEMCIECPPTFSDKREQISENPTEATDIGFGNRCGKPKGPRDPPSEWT
Large T antigen, sequence (P03070 whole entry): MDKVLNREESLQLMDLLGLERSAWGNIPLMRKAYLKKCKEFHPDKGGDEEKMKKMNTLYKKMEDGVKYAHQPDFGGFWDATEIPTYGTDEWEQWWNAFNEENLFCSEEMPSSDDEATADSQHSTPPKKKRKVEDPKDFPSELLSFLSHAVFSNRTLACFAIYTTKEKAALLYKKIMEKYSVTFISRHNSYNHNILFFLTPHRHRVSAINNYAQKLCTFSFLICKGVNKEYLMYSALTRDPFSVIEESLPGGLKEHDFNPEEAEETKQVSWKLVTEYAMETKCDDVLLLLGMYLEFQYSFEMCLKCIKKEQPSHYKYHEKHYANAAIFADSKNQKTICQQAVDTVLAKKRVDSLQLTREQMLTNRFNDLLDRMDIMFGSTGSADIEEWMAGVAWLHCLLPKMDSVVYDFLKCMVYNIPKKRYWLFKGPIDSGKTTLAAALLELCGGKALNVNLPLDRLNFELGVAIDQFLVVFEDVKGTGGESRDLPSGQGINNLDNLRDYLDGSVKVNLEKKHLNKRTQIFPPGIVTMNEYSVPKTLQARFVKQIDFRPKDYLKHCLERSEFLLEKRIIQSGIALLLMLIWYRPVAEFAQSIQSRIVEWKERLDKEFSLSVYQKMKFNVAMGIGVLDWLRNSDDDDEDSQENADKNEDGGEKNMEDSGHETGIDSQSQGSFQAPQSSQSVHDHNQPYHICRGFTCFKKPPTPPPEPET
Intestinal-type alkaline phosphatase (Homo sapiens, UniProt P09923), sequence (P09923 whole entry): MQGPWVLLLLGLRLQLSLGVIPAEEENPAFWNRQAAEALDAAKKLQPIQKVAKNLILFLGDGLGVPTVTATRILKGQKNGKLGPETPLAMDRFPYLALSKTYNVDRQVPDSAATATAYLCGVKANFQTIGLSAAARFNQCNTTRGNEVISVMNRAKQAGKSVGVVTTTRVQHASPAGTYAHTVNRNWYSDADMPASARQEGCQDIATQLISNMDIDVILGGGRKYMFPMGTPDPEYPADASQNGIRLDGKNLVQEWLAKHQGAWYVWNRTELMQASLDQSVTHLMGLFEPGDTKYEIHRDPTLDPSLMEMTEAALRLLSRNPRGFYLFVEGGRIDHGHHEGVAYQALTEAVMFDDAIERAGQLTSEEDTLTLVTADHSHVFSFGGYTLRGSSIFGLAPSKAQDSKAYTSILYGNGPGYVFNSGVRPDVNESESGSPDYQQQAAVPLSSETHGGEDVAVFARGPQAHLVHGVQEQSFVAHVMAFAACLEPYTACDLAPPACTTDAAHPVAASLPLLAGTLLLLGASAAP

Turning to `COc1cc(/C=C(\C#N)c2ccc(F)cc2)ccc1OCc1ccc(C(=O)O)cc1`, the IC50 in assay [1] is > 100 µM (inactive); in assay [2] it was 59.2 µM (active); in assay [3] it was 94.2 µM (active); in [4] it was 35.5 µM (active); in assay [5], 61.2 µM (active); in [6] it was 22.1 µM (active). Further, the half-maximal inhibitory concentration (IC50) in assay [7] was 33.9 µM (active); in [8] it was 7.01 µM (active).

`O=C(CCN1C(=O)/C(=C/c2ccco2)SC1=S)Nc1ccc(C(=O)O)c(O)c1`: the results for the IC50 in [9], in assay [12] and in assay [13] were 56.1 µM (active), 1.46 µM (active) and 14.3 µM (active), respectively. Besides, the EC50 was 7.32 µM (active) in [10], 66.2 µM (active) in assay [11] and 84.9 µM (active) in assay [14].
